Data set [1] concerns Human immunodeficiency virus 1. Put plainly: Antiviral activity against HIV-1 infected in human MT4 cells assessed as reduction in virus-induced cytopathic effect incubated for 5 days by Cell Titer-Glo luminescent assay. The class given is functional, organism-based. Conditions: Human immunodeficiency virus 1, MT4, 120 h. (In general: Protection from cytopathic effect is a common read-out in antiviral testing.)

Data set [2] deals with MT4. The experiment in a line: Cytotoxicity against human MT4 cells assessed as reduction in cell viability after 5 days by MTT assay. Conditions: MT4, 120 h, time 5 day. The class given is functional. In general terms: Tetrazolium dyes change colour on reduction, which living cells bring about.
The nature of data set [3]: Selectivity index, ratio of CC50 for human MT4 cells to EC50 for antiviral activity against HIV1 infected in human MT4 cells. The class given is toxicity, cell-based. To be noted: read-out: Ratio CC50/EC50.
For data set [4], the target named is T1, Human immunodeficiency virus type 1 reverse transcriptase (Human immunodeficiency virus 1, UniProt Q72547). Put plainly: Inhibition of recombinant HIV-1 reverse transcriptase associated RNA-dependent DNA polymerase activity incubated for 30 mins by liquid scintillation method.
Data set [5] deals with MT4. The experiment in a line: Cytotoxicity against human MT4 cells assessed as reduction in cell viability incubated for 4 days by MTT assay. To be noted: MT4, 96 h, time 4 day. The class given is functional.
The test system of data set [6] is Human immunodeficiency virus 1. Put plainly: Antiviral activity against wild type HIV-1 IIIB harboring Y181C/K103N double mutant infected in human MT4 cells assessed as reduction in cytopathic effect measured after 4 days by MTT assay. To be noted: Human immunodeficiency virus 1, IIIB, MT4, 96 h. It counts as functional, organism-based.
The test system of data set [7] is Human immunodeficiency virus 1. Put plainly: Antiviral activity against wild type HIV-1 IIIB infected in human MT4 cells assessed as reduction in cytopathic effect measured after 4 days by MTT assay. The class given is functional, organism-based. To be noted: Human immunodeficiency virus 1, IIIB, MT4, 96 h.
In data set [8] the test system is Human immunodeficiency virus 1. The experiment in a line: Antiviral activity against […] infected in human MT4 cells assessed as reduction in cytopathic effect measured after 4 days by MTT assay. To be noted: Human immunodeficiency virus 1, IIIB, MT4, 96 h. The class given is functional, organism-based.
Data set [9] relates to Human immunodeficiency virus 1. Put plainly: Antiviral activity against HIV-1 NL4-3 harboring infected Y188L mutant infected in human MT4 cells assessed as reduction in viral replication. The class given is functional, organism-based. Conditions: Human immunodeficiency virus 1, NL4-3, MT4.
For data set [10], the system named is Human immunodeficiency virus 1. Put plainly: Antiviral activity against HIV-1 NL4-3 harboring infected K103N mutant infected in human MT4 cells assessed as reduction in viral replication. Conditions: Human immunodeficiency virus 1, NL4-3, MT4. The class given is functional, organism-based.
Data set [11] relates to Human immunodeficiency virus 1. The experiment in a line: Antiviral activity against wild type HIV-1 NL4-3 infected in human MT4 cells assessed as reduction in viral replication measured for 72 hrs by ELISA analysis. The class given is functional, organism-based. Conditions: Human immunodeficiency virus 1, NL4-3, MT4, 72 h. A general note: ELISA stands for enzyme-linked immunosorbent assay.

Data set [12] concerns Human immunodeficiency virus 1. The experiment in a line: Antiviral activity against HIV-1 NL4-3 harboring infected Y181C mutant infected in human MT4 cells assessed as reduction in viral replication. It counts as functional, organism-based. To be noted: Human immunodeficiency virus 1, NL4-3, MT4.
A further data set concerns MT2. The experiment in a line: Cytotoxicity against human MT2 cells. It counts as functional.
For data set [13], the system named is MT4. Put plainly: Cytotoxicity against human MT4 cells assessed as reduction in cell growth incubated for 5 days by MTT assay. The class given is functional. Conditions: MT4, 120 h, time 5 day.
For data set [14], the system named is Human immunodeficiency virus 1. The experiment in a line: Antiviral activity against HIV-1 3B infected in human MT4 cells assessed as reduction in viral replication incubated for 5 days by MTT assay. The class given is functional, organism-based. To be noted: Human immunodeficiency virus 1, 3B, MT4, 120 h.
For data set [15], the system named is Human immunodeficiency virus 1. Put plainly: Antiviral activity against HIV-1 harboring protease V82F mutant infected in human C8166 cells assessed as inhibition of viral replication measured for 72 hrs by spectrophotometric MTT assay. Conditions: Human immunodeficiency virus 1, C8166, 72 h. It counts as functional, organism-based.
Data set [16] can be described thus: Cytotoxicity against African green monkey Vero cells assessed as reduction in cell viability incubated for 72 hrs by MTT assay. The class given is toxicity, cell-based. Conditions: chlorocebus sabaeus.
For data set [17], the target named is T2, Reverse transcriptase (Human immunodeficiency virus 1, UniProt Q9WKE8, K103N). Put plainly: Inhibition of HIV-1 Reverse transcriptase K103N mutant.
Data set [18] deals with Human immunodeficiency virus 1. Put plainly: Antiviral activity against wild type HIV-1 NL4-3 infected in human MT4 cells assessed as reduction in viral replication. It counts as functional, organism-based. To be noted: Human immunodeficiency virus 1, NL4-3, MT4; read-out: EC50.
Data set [19] concerns MT4. The experiment in a line: Cytotoxicity against human MT4 cells. It counts as functional.
In data set [20] the test system is Human immunodeficiency virus 1. Put plainly: Antiviral activity against wild type HIV-1 IIIB infected in human MT4 cells assessed as protection against virus-induced cytopathic effect incubated for 72 hrs by MTT assay. The class given is functional, organism-based. Conditions: Human immunodeficiency virus 1, IIIB, MT4, 72 h.
Data set [21] deals with Human immunodeficiency virus 1. The experiment in a line: Antiviral activity against HIV-1 infected in human MT4 cells. The class given is functional, organism-based. Conditions: Human immunodeficiency virus 1, MT4.
The target in data set [22] is T1, Human immunodeficiency virus type 1 reverse transcriptase. Put plainly: Inhibition of wild type HIV-1 Reverse transcriptase.
Data set [23] addresses T2, Reverse transcriptase. The experiment in a line: Binding affinity to HIV-1 reverse transcriptase K103N mutant assessed as inhibition constant.

Consider `CCC(C)Oc1nc(Sc2ccccc2)nc(N)c1C` (stereo not drawn), for which the concentration for a half-maximal effect (EC50) in data set [1] is 8 µM. Further, the CC50 in the data set on MT4 [2] was greater than 364 µM. In [3], the selectivity ratio is greater than 45. Moreover, the 50% inhibitory concentration (IC50) in data set [4] amounted to 28 µM.
In the case of `C=C(c1nc(N(C)C)[nH]c(=O)c1C)c1c(F)cccc1F`, the CC50 in the data set with MT4 [5] is greater than 100 µM. For the same compound, the figures for the half-maximal effective concentration (EC50) in [6], in [7] and in [8] were greater than 100 µM, 0.2 µM and 44 µM, respectively.
`CSc1nc(N)c(C)c(C(=O)c2ccc(F)cc2)n1`: the EC50 in data set [9] was 0.21 µM; in data set [10], 5.95 µM; in [11], 0.58 µM; in [12], 0.21 µM.
Compound `CSc1nc(C(C)C)c(CC2CCCCC2)n1COCc1ccccc1` displayed a half-maximal cytotoxic concentration (CC50) in the data set on MT2 of 31 µM.
In the case of `Cc1c(C(Br)c2c(F)cccc2F)nc(N(C)C)[nH]c1=O` (stereo not drawn), the CC50 with MT4 [5] is 43 µM. Besides, the EC50 is 43 µM in data set [6], 0.2 µM in [7] and 43 µM in data set [8].
Regarding `CCC(C)Sc1nc(Cc2cc(C)cc(C)c2)c(C)c(=O)[nH]1` (stereo not drawn), in the data set on MT4 [13], the CC50 was determined as 86 µM. In addition, the 50% effective concentration (EC50) in data set [14] is 0.6 µM.
As to `CSCSc1nc(Cc2c(F)cccc2F)cc(=O)[nH]1`, in data set [15], the EC50 stood at 0.8 µM. Further, in data set [16], the CC50 at 72 h is greater than 200 µM.
On to `CCc1nc(SC)n(COCc2ccccc2)c1CC1CCCCC1`, for which, in the data set on MT2, the CC50 came to 25 µM.
As for `CCC(C)Sc1nc(Cc2cc(C)cc(C)c2)c(I)c(=O)[nH]1` (stereo not drawn), the cytotoxic concentration (CC50) in the data set on MT4 [13] turned out to be 144 µM. Further, in [14], the concentration giving a half-maximal response (EC50) amounted to 4.3 µM.
Regarding `CCC(C)Oc1nc(Cc2cc(C)cc(C)c2)c(C)c(=O)[nH]1` (stereo not drawn), the 50% effective concentration (EC50) in data set [1] was 0.8 µM. For the same compound, in the data set with MT4 [2], the CC50 is greater than 333 µM. The selectivity ratio in data set [3] is greater than 416. Further, in [4], the half-inhibitory concentration (IC50) was 2 µM.
Turning to `Cc1c(C(F)c2c(F)cccc2F)nc(N(C)C)[nH]c1=O` (stereo not drawn), the cytotoxic concentration (CC50) with MT4 [5] was greater than 100 µM. In addition, the results for the EC50 in data set [6], in data set [7] and in [8] were greater than 100 µM, 0.02 µM and 2.8 µM, respectively.
In the case of `CCOCn1c(SC)nc(C(C)C)c1CC1CCCCC1`, in the data set on MT2, the half-maximal cytotoxic concentration (CC50) came out at 39 µM.
On the same count and under the same terms, as for `CSc1nc(C(C)C)c(Cc2ccccc2)n1COCc1ccccc1`, the figure is 29 µM.
Consider `COc1ccc(C2CC2CN(C)c2nc(C(C)c3c(F)cccc3F)cc(=O)[nH]2)cc1` (stereo not drawn), for which the 50% effective concentration (EC50) was 2.95 µM in [9], 0.07 µM in data set [10], greater than 5 µM in data set [12] and 0.003 µM in [18]. This compound registered an IC50 at Reverse transcriptase [17] of 0.985 µM.
On to `Cc1cc(C)cc(Cc2nc(Sc3cccc4ccccc34)[nH]c(=O)c2C)c1`, for which the cytotoxic concentration (CC50) with MT4 [19] is greater than 100 µM. The EC50 in [20] came out at 1.6 µM.
As for `Cc1cccc(Cc2cc(=O)[nH]c(OC3CCCCC3)n2)c1`, in [1], the EC50 stood at 0.8 µM. Also, in the data set with MT4 [2], the half-maximal cytotoxic concentration (CC50) is greater than 335 µM. The selectivity ratio in [3] is greater than 418. The IC50 in data set [4] stood at 1.8 µM.
Turning to `CCCSc1nc(C2(c3c(F)cccc3F)CC2)c(C)c(=O)[nH]1`, the cytotoxic concentration (CC50) with MT4 [19] came out at 12 µM. Also, the EC50 in data set [21] was found to be 0.004 µM. Further, the selectivity ratio in data set [3] came out at 3000.
`COc1ccc(Cn2cc(CSc3nc(Cc4c(Cl)cccc4Cl)c(C)c(=O)[nH]3)nn2)cc1` showed a CC50 in the data set on MT4 [19] of 29 µM. The IC50 in [22] amounted to 4.56 µM.
With `CC(c1cc(=O)[nH]c(N(C)C)n1)c1c(F)cccc1Cl` (stereo not drawn), the 50% effective concentration (EC50) in data set [11] stood at 0.007 µM. Further, on Reverse transcriptase [23], the Ki stood at 1 µM.
As to `Cc1c(C(O)c2c(F)cccc2F)nc(N(C)C)[nH]c1=O` (stereo not drawn), the 50% cytotoxic concentration (CC50) with MT4 [5] turned out to be 50 µM. The half-maximal effective concentration (EC50) is greater than 50 µM in data set [6], 1 µM in data set [7] and greater than 50 µM in data set [8].
As for `Cc1c(C(=O)c2c(F)cccc2F)nc(N(C)C)[nH]c1=O`, the CC50 in the data set with MT4 [5] is greater than 100 µM. Also, the EC50 in data set [6] is greater than 100 µM; in data set [7], 0.3 µM; in data set [8] it was 94 µM.
Regarding `Cc1c(C(C)c2c(F)cccc2F)nc(N(C)C)[nH]c1=O` (racemic), in the data set with MT4 [5], the CC50 was greater than 100 µM. Besides, the EC50 in data set [6] came out at 0.9 µM; in data set [8], 0.7 µM.

As a reminder, the EC50 is the concentration giving half of the maximal effect. As a reminder, the CC50 is the concentration at which the toxic effect on the cells reaches its halfway point. One may read the IC50 as the concentration needed to halve the response being measured. The Ki is a measure of affinity in units of concentration, obtained from inhibition or displacement.

For the origin of these results see ChEMBL document CHEMBL6115028, “An Amazing 30-Year Journey around the DABO Family: A Medicinal Chemistry Lesson on a Versatile Class of Non-nucleoside HIV-1 Reverse Transcriptase Inhibitors” (J Med Chem, 2025).
